Measured values reported in patent US20260286316A1, “METHOD OF PRODUCTION OF MODIFIED PHAGE AND METHOD OF TREATMENT USING SAME” (priority 2022, published 2026).
Read-outs that look alike come from different tables or passages of the source.

Experiments:
[1] = system: S. aureus ATCC51650 and CIs (CI2, CI3, CI4, CI6, CI7, CI8, CI9, and CI11); type: cell-based, Staphylococcus aureus
Method: (§1) Initial screening was performed in 100 μl in 96 well plates, with follow up experiments in 10 mL culture volume. S. aureus strains were grown on 1.5% Tryptone Soya Agar (TSA) at 37° C. overnight. Single colonies were transferred to Tryptone Soya Broth (TSB) to generate a culture with a starting concentration of 5×10^5 CFU/ml. […] Antibiotics were added to the cultures at ½ MIC (according to the pretest MIC of antibiotics) if required. Optical density (OD) readings at 600 nm were recorded at 24 hours to assess the growth of bacteria co-inoculated with phage unless otherwise specified. Uninoculated, fresh media was included as a sterility control.
A synergistic effect was defined as a statistically significant decrease in optical density (OD) that was larger than the combined decrease in OD of antibiotic and phage only controls.

[2] = system: S. aureus isolates (15 clinical isolates and 2 ATCC strains); experiment: Antibiotic sensitivity testing, 17 isolates; type: cell-based, Staphylococcus aureus; conditions: of 17 S. aureus isolates
Method: S. aureus ATCC51650 and ATCC25923 were obtained from the American Type Culture Collection (Manassas, VA, United States of America) and used as reference strains. In addition, a total of 15 S. aureus clinical isolates (CIs) were isolated from the sinonasal cavities of chronic sinusitis (CRS) patients. In each case, S. aureus was cultured by an independent diagnostic laboratory and the antibiotic susceptibility determined by disc diffusion on Mueller-Hinton agar per Clinical and Laboratory Standards Institute (CLSI) recommendations (Adelaide Pathology Partners, Mile End, SA, Australia). Bacteria were isolated on Columbian horse blood agar plates, colistin nalidixic acid plates, or cystine lactose electrolyte-deficient plates (Oxoid Australia Pty Ltd, Thebarton, SA, Australia). Positive cultures were confirmed to be S. aureus using latex agglutination testing.
(§2) The minimum inhibitory concentration (MIC) of amoxicillin, vancomycin, erythromycin, clindamycin and azithromycin against the S. aureus strains was assessed using the broth microdilution technique as previously described (Wiegand I et al., Nature protocols 3 (2): 163-175, 2008) and breakpoints defined according to CSLI guidelines. Clinical strains resistant to at least one antibiotic in three or more antibiotic categories were defined as multidrug resistant (MDR).

[3] = system: S. aureus CI3; experiment: Phage combined with ½ MIC antibiotics on planktonic S. aureus (OD600), CI3; type: cell-based, Staphylococcus aureus; conditions: ½ MIC antibiotic, phage MOI=0.2, 24 hours
Method: as §1

[4] = system: S. aureus CI3; experiment: Rat rhinosinusitis model, efficacy arm (sinus mucosa CFU, biofilm biomass, histopathology); type: in vivo, Sprague Dawley rats
From the text: Rat nasal tissues were fixed in 10% neutral buffered formalin. Tissue samples were then decalcified using 9.5% nitric acid in 1% ethylenediaminetetracetic acid (EDTA), processed to paraffin wax, and 6 μm sections cut and stained with H&E. The samples were examined by a veterinary pathologist blinded to the treatments given.
An established murine rhinosinusitis model was used with modifications (see YU C-j et al., Chinese Journal of Otorhinolaryngology-Skull Base Surgery 6, 2011; Zhang F et al., Am J Rhinol Allergy 27 (5): 361-366, 2013; and Jin M et al., Ear Arch Oto-Rhino-L 268 (6): 857-861, 2011). […] The sponges were placed at approximately 15 mm from the anterior nostril, located in the ostiomeatal complex. The rats were monitored for a nine-day period to allow for mucosal biofilms to form, and, on the tenth day, the sponges were removed. A two-day recovery was given to the rat before treatments begun. […] Treatments were administered intranasally twice a day for 14 days. Rats were monitored for weight and respiratory alterations (respiration rate; nasal discharge, hyperaemia or pruritus; and sneezing) during treatment, and, 14 days post-treatment initiation, the rats were humanely sacrificed. Their sinus mucosa was harvested for CFU counting, biofilm quantification, histopathology, and phage enumeration. […]
The quantification of biofilm biomass on sinus mucosa was determined using an established protocol (Singhal D et al., editors. Quantitative analysis of in vivo mucosal bacterial biofilms. International Forum of Allergy & Rhinology; 2012: Wiley Online Library (27). Briefly, the frontal sinus mucosa was harvested and placed into Dulbecco's Modified Eagle's Medium (Life Technologies, Carlsbad, CA, United States of America) on ice. One piece of mucosa from each frontal sinus was stained with a LIVE/DEAD® BacLight Bacterial Viability Kit (Life Technologies Australia). The stained mucosa was then examined at 20× magnification using a confocal laser scanning microscope (Zeiss LSM700, Carl Zeiss AG, Oberkochen, Germany). […]

[5] = system: S. aureus CI3; experiment: Antibiotic sensitivity of the isolate selected for in vivo experiments; type: cell-based, Staphylococcus aureus
Method: as §2
A fresh culture of CI3 on 1.5% TSA plates was prepared two days before inoculation. A single colony was resuspended in 0.9% saline (ca. 2 ml) to turbidity reading 0.5 McFarland Units and then a 1 in 100 dilution in TSB was cultured overnight one day before the in vivo experiment. CI3 pellets were harvested and resuspended in fresh TSB to reach 2.5×10^9 Colony Forming Units (CFU)/ml.

Structure (SMILES): CN[C@H](CC(C)C)C(=O)N[C@H]1C(=O)N[C@@H](CC(N)=O)C(=O)N[C@H]2C(=O)N[C@H]3C(=O)N[C@H](C(=O)N[C@H](C(=O)O)c4cc(O)cc(O)c4-c4cc3ccc4O)[C@H](O)c3ccc(c(Cl)c3)Oc3cc2cc(c3O[C@@H]2O[C@H](CO)[C@@H](O)[C@H](O)[C@H]2O[C@H]2C[C@](C)(N)[C@H](O)[C@H](C)O2)Oc2ccc(cc2Cl)[C@H]1O [vancomycin]
- additive or synergistic effect of the antibiotic combined with phage [1]: None of the combinations of phage with either of the cell wall actives (amoxicillin and vancomycin) showed any significant additive or synergistic effects

Structure (SMILES): CC[C@H]1OC(=O)[C@H](C)[C@@H](O[C@H]2C[C@@](C)(OC)[C@@H](O)[C@H](C)O2)[C@H](C)[C@@H](O[C@@H]2O[C@H](C)C[C@H](N(C)C)[C@H]2O)[C@](C)(O)C[C@@H](C)CN(C)[C@H](C)[C@@H](O)[C@]1(C)O [azithromycin]
- isolates exhibiting resistance to the antibiotic [2]: two
- synergistic effects with phage J-Sa36, Sa83 and Sa87 on bacterial viability (OD600) [3]: synergistic effects
- biofilm biomass on sinus mucosa compared to control, single agent ([4]; 0.5×10^10 PFU/ml Sa87 or ½ MIC antibiotic alone): significant increase in biomass
- histopathology of the maxilloturbinates, single agent ([4]; Sa87, ½ MIC clindamycin or ½ MIC azithromycin only): evidence of cilial denudation and surface epithelial erosion
- antibiotic sensitivity of the isolate [5]: sensitive

Structure (SMILES): CC[C@H]1OC(=O)[C@H](C)[C@@H](O[C@H]2C[C@@](C)(OC)[C@@H](O)[C@H](C)O2)[C@H](C)[C@@H](O[C@@H]2O[C@H](C)C[C@H](N(C)C)[C@H]2O)[C@](C)(O)C[C@@H](C)C(=O)[C@H](C)[C@@H](O)[C@]1(C)O [erythromycin]
- isolates exhibiting resistance to the antibiotic [2]: three
- synergistic effects with phage J-Sa36, Sa83 and Sa87 on bacterial viability (OD600) [3]: synergistic effects

Structure (SMILES): CC1(C)S[C@@H]2[C@H](NC(=O)[C@H](N)c3ccc(O)cc3)C(=O)N2[C@H]1C(=O)O [amoxicillin]
- additive or synergistic effect of the antibiotic combined with phage ([1]; ½ MIC antibiotic with J-Sa36, Sa83 or Sa87 (MOI=0.2)): None of the combinations of phage with either of the cell wall actives (amoxicillin and vancomycin) showed any significant additive or synergistic effects
